Laboratory results published in US20240091200A1 (Lilac Therapeutics, Inc., priority 2019, published 2024).
“And” between values parts separate entries of the source, which are not always exact repeats. Equal values may be shown once.

Tested on: not listed separately
Assay: Plasma pharmacokinetics after an oral dose of Example 2 in SD rats
Type: in vivo, Sprague Dawley rats
Conditions: Example 2 in plasma, PO Example 2 5 mg/kg, individual rats
Method: An oral dose of Example 2 was formulated in a sterile solution of 50% water, 37.5% PEG 300, and 12.5% DMSO at 1.0 mg/mL. The dosing group consisted of three fasted male Sprague Dawley rats. At dosing, the animals weighed between 0.26 and 0.27 kg. For the oral dosing group, the formulated dose was administered via oral gavage at 5.0 mL/kg for a dose of 5.0 mg/kg. Non-compartmental pharmacokinetic analysis was performed on the plasma concentration-time data.
For `CCOC(=O)c1[nH]nnc1-c1ccc(-c2ccc(C(N)=O)cc2)cc1` [Example 2, ethyl 4-(4carbamoyl-[1,1biphenyl]-4-yl)-1H-1,2,3-triazole-5-carboxylate], the AUC0-24 h was 1.55 µM·h and 1.85 µM·h, the AUCinf was 1.57 µM·h and 1.9 µM·h and the Cmax was 2530 nM and 2110 nM. It also gave a Tmax of 30 min.

Same assay, conditions: Example 2 in plasma, PO Example 2 5 mg/kg, mean n=3
In the case of `CCOC(=O)c1[nH]nnc1-c1ccc(-c2ccc(C(N)=O)cc2)cc1` [Example 2, ethyl 4-(4carbamoyl-[1,1biphenyl]-4-yl)-1H-1,2,3-triazole-5-carboxylate], the AUCinf is reported as 1.6 µM·h.

Same assay, conditions: male, Sprague Dawley, rat, plasma, po, 5 mg/kg, Example 2 in plasma, PO Example 2 5 mg/kg, individual rats
Work on `CCOC(=O)c1[nH]nnc1-c1ccc(-c2ccc(C(N)=O)cc2)cc1` [Example 2, ethyl 4-(4carbamoyl-[1,1biphenyl]-4-yl)-1H-1,2,3-triazole-5-carboxylate] yielded an AUC(0-inf) of 1.34 µM·h and a Cmax of 2540 nM.

Same assay, conditions: male, Sprague Dawley, rat, plasma, po, 5 mg/kg, Example 2 in plasma, PO Example 2 5 mg/kg, individual rats, read-out: AUC0-24 h
Work on `CCOC(=O)c1[nH]nnc1-c1ccc(-c2ccc(C(N)=O)cc2)cc1` [Example 2, ethyl 4-(4carbamoyl-[1,1biphenyl]-4-yl)-1H-1,2,3-triazole-5-carboxylate] yielded an AUC(0-t) of 1.27 µM·h.

Same assay, conditions: male, Sprague Dawley, rat, plasma, po, 5 mg/kg, Example 2 in plasma, PO Example 2 5 mg/kg, individual rats, read-out: Tmax
Work on `CCOC(=O)c1[nH]nnc1-c1ccc(-c2ccc(C(N)=O)cc2)cc1` [Example 2, ethyl 4-(4carbamoyl-[1,1biphenyl]-4-yl)-1H-1,2,3-triazole-5-carboxylate] yielded a Tmax of 15 min.

Same assay, conditions: male, Sprague Dawley, rat, plasma, po, 5 mg/kg, Example 2 in plasma, PO Example 2 5 mg/kg, mean n=3
`CCOC(=O)c1[nH]nnc1-c1ccc(-c2ccc(C(N)=O)cc2)cc1` [Example 2, ethyl 4-(4carbamoyl-[1,1biphenyl]-4-yl)-1H-1,2,3-triazole-5-carboxylate] showed an AUC(0-inf) of 1.6 ± 0.28 µM·h and a Cmax of 2390 ± 246 nM.

Same assay, conditions: male, Sprague Dawley, rat, plasma, po, 5 mg/kg, Example 2 in plasma, PO Example 2 5 mg/kg, mean n=3, read-out: AUC0-24 h
`CCOC(=O)c1[nH]nnc1-c1ccc(-c2ccc(C(N)=O)cc2)cc1` [Example 2, ethyl 4-(4carbamoyl-[1,1biphenyl]-4-yl)-1H-1,2,3-triazole-5-carboxylate] gave an AUC(0-t) of 1.56 µM·h.

Same assay, conditions: male, Sprague Dawley, rat, plasma, po, 5 mg/kg, Example 2 in plasma, PO Example 2 5 mg/kg, mean n=3, read-out: Tmax
In the case of `CCOC(=O)c1[nH]nnc1-c1ccc(-c2ccc(C(N)=O)cc2)cc1` [Example 2, ethyl 4-(4carbamoyl-[1,1biphenyl]-4-yl)-1H-1,2,3-triazole-5-carboxylate], the Tmax is reported as 19.8 min.

Target: Glycolate oxidase (GO) (Homo sapiens (Human), UniProt Q9UJM8)
Sequence (Q9UJM8 whole entry): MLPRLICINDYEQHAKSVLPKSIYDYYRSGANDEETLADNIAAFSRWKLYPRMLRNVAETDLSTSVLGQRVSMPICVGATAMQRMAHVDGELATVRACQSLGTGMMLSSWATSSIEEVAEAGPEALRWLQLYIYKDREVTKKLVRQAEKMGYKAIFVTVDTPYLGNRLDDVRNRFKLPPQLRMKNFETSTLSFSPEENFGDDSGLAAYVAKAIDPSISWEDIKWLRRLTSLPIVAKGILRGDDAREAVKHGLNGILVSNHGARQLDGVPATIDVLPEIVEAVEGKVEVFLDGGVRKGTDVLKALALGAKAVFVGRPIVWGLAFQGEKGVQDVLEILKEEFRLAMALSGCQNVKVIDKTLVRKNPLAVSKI
Assay: GO biochemical assay (Amplex Red, 384-well)
Conditions: not given
Method: Amplex® Red Hydrogen Peroxide/Peroxidase Assay Kit (Catalog no. A22188) was purchased from Thermo Fisher (Waltham, MA).
The reaction was mixed and incubated at room temperature for 20 min followed by reading the plates by EnVision plate reader (Perkin Elmer, San Jose, CA) with excitation at 570 nm and emission 585 nm. […] The % inhibition as calculated as 100%×(Well-Negative)/(Positive-Negative)
For `CCOC(=O)c1[nH]nnc1-c1ccc(-c2ccc(Cl)cc2)cc1` [Example 1], the IC50 was 1000 nM. In the case of `CCOC(=O)c1[nH]nnc1-c1ccc(-c2ccc(C(N)=O)cc2)cc1` [Example 2, ethyl 4-(4carbamoyl-[1,1biphenyl]-4-yl)-1H-1,2,3-triazole-5-carboxylate], the IC50 is reported as 1000 nM. With `Cc1ccccc1-c1nn[nH]c1C(=O)O` [Example 3, 4-(o-tolyl)-1H-1,2,3-triazole-5-carboxylic acid] the IC50 was ≥ 10000 nM. With `Cc1ccc(-c2nn[nH]c2C(=O)O)cc1` [Example 5, 4-(p-tolyl)-1H-1,2,3-triazole-5-carboxylic acid] the IC50 was ≥ 10000 nM. Work on `O=C(O)c1[nH]nnc1-c1cccc(F)c1` [Example 8, 4-(3-fluorophenyl)-1H-1,2,3-triazole-5-carboxylic acid] yielded an IC50 of 1310 nM. In the case of `N#Cc1cccc(-c2nn[nH]c2C(=O)O)c1` [Example 12], the IC50 is reported as 130 nM. With `Cn1nnc(C(=O)O)c1-c1ccc(F)c(Cl)c1` [Example 17, 5-(3-chloro-4-fluorophenyl)-1-methyl-1H-1,2,3-triazole-4-carboxylic acid] the IC50 was ≥ 10000 nM. `O=C(O)c1[nH]nnc1-c1ccc(Cl)c(Cl)c1` [Example 19, 4-(3,4-dichlorophenyl)-1H-1,2,3-triazole-5-carboxylic acid] showed an IC50 of 196 nM. `O=C(O)c1[nH]nnc1-c1cccc(Cl)c1F` [Example 22, 4-(3-chloro-2-fluorophenyl)-1H-1,2,3-triazole-5-carboxylic acid] showed an IC50 of 159 nM. Work on `O=C(O)c1[nH]nnc1-c1ccc2c(c1)OC(F)(F)O2` [Example 29, 4-(2,2-difluorobenzo[d][1,3]dioxol-5-yl)-1H-1,2,3-triazole-5-carboxylic acid] yielded an IC50 of 330 nM. For `O=C(O)c1n[nH]cc1-c1cccnc1` [Example 35, 4-(pyridin-3-yl)-1H-pyrazole-3-carboxylic acid], the IC50 was ≥ 10000 nM. Molecule `COc1cc2ccc(-c3nn[nH]c3C(=O)O)cc2cn1` [Example 40, 4-(3-methoxyisoquinolin-7-yl)-1H-1,2,3-triazole-5-carboxylic acid] has an IC50 of 1000 nM. `Cc1ccc(-c2ccc(-c3nn[nH]c3C(=O)O)cc2)cc1` [Example 53] gave an IC50 of 377 nM. `CC(C)(C)c1ccc(-c2ccc(-c3nn[nH]c3C(=O)O)cc2)cc1` [Example 54] showed an IC50 of 4300 nM. Work on `O=C(O)c1[nH]nnc1-c1ccc(-c2ccc(OC(F)(F)F)cc2)cc1` [Example 55] yielded an IC50 of 563 nM. For `O=C(O)c1[nH]nnc1-c1ccc(-c2cccc(S(=O)(=O)N3CCOCC3)c2)cc1` [Example 75], the IC50 was 18.6 nM. `NS(=O)(=O)c1ccc(-c2ccc(-c3nn[nH]c3C(=O)O)cc2)cc1` [Example 77] gave an IC50 of 94.6 nM. Work on `O=C(O)c1[nH]nnc1-c1ccc(-c2ccc(S(=O)(=O)N3CCCCC3)cc2)cc1` [Example 79] yielded an IC50 of 244 nM. In the case of `O=C(O)c1[nH]nnc1-c1ccc(-c2ccc(N3CCCC3=O)cc2)cc1` [Example 83], the IC50 is reported as 136 nM. `O=C(O)c1[nH]nnc1-c1ccc(-c2ccc(N3CCOCC3)cc2)cc1` [Example 84] gave an IC50 of 1000 nM. Work on `O=C(O)c1[nH]nnc1-c1ccc2c(c1)oc1ccccc12` [Example 87, 4-(dibenzo[b,d]furan-3-yl)-1H-1,2,3-triazole-5-carboxylic acid] yielded an IC50 of 23.8 nM. With `O=C(O)c1[nH]nnc1-c1ccc2c(c1)[nH]c1ccccc12` [Example 88, 4-(9H-carbazol-2-yl)-1H-1,2,3-triazole-5-carboxylic acid] the IC50 was 77.6 nM. For `Cc1cc(-c2ccc(-c3nn[nH]c3C(=O)O)cc2)ccc1Cl` [Example 91], the IC50 was 64.5 nM. `O=C(O)c1[nH]nnc1-c1ccc(-c2cccc(-c3ccccc3)c2)cc1` [Example 99, 4-([1,131terphenyl]-4-yl)-1H-1,2,3-triazole-5-carboxylic acid] gave an IC50 of 408 nM. `O=C(O)c1[nH]nnc1-c1ccc(-c2ccc(-c3ccncc3)cc2)cc1` [Example 103] showed an IC50 of 93.2 nM. With `Cc1cnc(-c2ccc(-c3ccc(-c4nn[nH]c4C(=O)O)cc3)cc2)s1` [Example 109] the IC50 was 22.7 nM. In the case of `O=C(O)c1[nH]nnc1-c1ccc(-c2ccc(-c3ncco3)cc2)cc1` [Example 112], the IC50 is reported as 37.5 nM. For `Cc1cc(-c2ccc(-c3ccc(-c4nn[nH]c4C(=O)O)cc3)cc2)nn1C` [Example 117], the IC50 was 19.7 nM. For `O=C(O)c1[nH]nnc1-c1ccc(-c2ccc(-c3nc4ccccc4s3)cc2)cc1` [Example 122], the IC50 was 10.7 nM. Work on `O=C(O)c1[nH]nnc1-c1ccc(-c2ccc(-c3cn[nH]c3)cc2)cc1` [Example 124] yielded an IC50 of 16.1 nM. In the case of `O=C(O)c1[nH]nnc1-c1ccc(-c2ccc(-c3cnn[nH]3)cc2)cc1` [Example 127], the IC50 is reported as 4.14 nM. With `O=C(O)c1[nH]nnc1-c1ccc(-c2ccc(-c3c[nH]cn3)cc2)cc1` [Example 129] the IC50 was 24 nM. In the case of `Cc1[nH]nnc1-c1ccc(-c2ccc(-c3nn[nH]c3C(=O)O)cc2)cc1` [Example 131], the IC50 is reported as 4.67 nM. In the case of `O=C(O)c1[nH]nnc1-c1ccccn1` [Example 139, 4-(pyridin-2-yl)-1H-1,2,3-triazole-5-carboxylic acid], the IC50 is reported as ≥ 10000 nM. For `O=C(O)c1[nH]ncc1-c1ccccn1` [Example 140, 4-(pyridin-2-yl)-1H-pyrazole-5-carboxylic acid], the IC50 was ≥ 10000 nM. For `O=C(O)c1[nH]nnc1-c1cscn1` [Example 141, 4-(thiazol-4-yl)-1H-1,2,3-triazole-5-carboxylic acid], the IC50 was ≥ 10000 nM. With `CN(C)C(=O)c1cccc(-c2ccc(-c3nn[nH]c3C(=O)O)cc2)c1` [Example 143] the IC50 was 1000 nM. With `O=C(O)c1[nH]nnc1-c1ccc(-c2ccc(Cl)c(S(=O)(=O)N3CCOCC3)c2)cc1` [Example 146] the IC50 was 33.6 nM. In the case of `Cn1nnc(-c2ccc(F)c(Cl)c2)c1C(=O)O` [Example 150, 4-(3-chloro-4-fluorophenyl)-1-methyl-11H-1,2,3-triazole-5-carboxylic acid], the IC50 is reported as ≥ 10000 nM. For `CC1(C)c2cc(-c3ccc(-c4nn[nH]c4C(=O)O)cc3)ccc2C(=O)N1CC(F)(F)F` [Example 153, 4-(4-(3,3-dimethyl-1-oxo-2-(2,2,2-trifluoroethyl)isoindolin-5-yl)phenyl)-1H-1,2,3-triazole-5-carboxylic acid], the IC50 was 119 nM. In the case of `O=C(O)c1[nH]nnc1C#Cc1ccc(Cl)cc1` [Example 160, 4-((4-chlorophenyl)ethynyl)-1H-1,2,3-triazole-5-carboxylic acid], the IC50 is reported as 226 nM. `CC(=O)N1CC=C(c2ccc(-c3nn[nH]c3C(=O)O)cc2)CC1` [Example 162, 4-(4-(1-acetyl-1,2,3,6-tetrahydropyridin-4-yl)phenyl)-1H-1,2,3-triazole-5-carboxylic acid] gave an IC50 of 88.2 nM. `CC(=O)N1CCC(c2ccc(-c3nn[nH]c3C(=O)O)cc2)CC1` [Example 163, 4-(4-(1-acetylpiperidin-4-yl)phenyl)-1H-1,2,3-triazole-5-carboxylic acid] gave an IC50 of 1000 nM. For `O=C(O)c1[nH]ncc1-c1ccc2c(c1)C(F)(F)c1cc(-c3c[nH]nn3)ccc1-2` [Example 170, 4-(9,9-difluoro-7-(1H-1,2,3-triazol-4-yl)-9H-fluoren-2-yl)-1H-pyrazole-5-carboxylic acid], the IC50 was 16.5 nM. For `O=C(O)c1c[nH]nc1-c1ccc(F)c(Cl)c1` [Example 182, 3-(3-chloro-4-fluorophenyl)-1H-pyrazole-4-carboxylic acid], the IC50 was > 10000 nM. With `O=C(O)c1c[nH]nc1-c1cc(Cl)cc(Cl)c1` [Example 183, 3-(3,5-dichlorophenyl)-1H-pyrazole-4-carboxylic acid] the IC50 was > 10000 nM. For `O=C(O)c1[nH]cnc1-c1ccc(F)c(Cl)c1` [Example 184, 4-(3-chloro-4-fluorophenyl)-1H-imidazole-5-carboxylic acid], the IC50 was > 10000 nM. In the case of `O=C(O)c1[nH]cnc1-c1cc(Cl)cc(Cl)c1` [Example 185, 4-(3,5-dichlorophenyl)-1H-imidazole-5-carboxylic acid], the IC50 is reported as > 10000 nM.
